Patent publication US11246949B2, “Imaging contrast agents and uses thereof” (The Research Foundation for The State University of New York, priority 2011, dated 2022)

Columns and labels:
[1] = Ascorbate consumption (redox cycling, reactive oxygen species generation); conditions: 100 μM ascorbate, 10 μM Fe(II), 10 μM ligand, 10 mM HEPES, pH 7.4, 37° C.
[2] = Electrochemical potential E° vs. NHE; format: physicochemical; conditions: 100 mM tetrabutylammonium hexafluorophosphate in acetonitrile
Description: In an embodiment, the compounds of the invention are stable towards chemical reaction in an oxidative environment (i.e., in the presence of biologically relevant concentrations of peroxide or oxygen). In an embodiment, the stability in an oxidative environment can be related to the reduction potential of the complex. In an embodiment, the compounds of the present invention have a reduction potential greater than 600 mV vs. NHE (Normal Hydrogen Electrode) as shown in Table 1. Generally, the compounds of the invention have a reduction potential above 800 mV vs. NHE.

[3] = pH-potentiometric titrations: acid-dissociation and ligand-Fe(II) equilibrium constants; format: physicochemical; conditions: for formation constant log K (binding of macrocycle to metal ion): 100 mM NaCl
Protocol: FIG. 10. Representative pH-potentiometric titrations for Fe(L1) and Fe(L3) in 100 mM NaCl at 25° C.
Fe(II) paraCEST agents were developed by preparing ligands that stabilize Fe(II) and Ni(II), contain multiple exchangeable protons to enhance the CEST effect and form six or eight coordinate complexes to protect the Fe(II) from binding additional ligands that might complicate the CEST signal. The sexadentate ligands contained the macrocycle, 1,4,7-triazacyclononane, with three pendent groups while the octadentate ligands contained 1,4,7,10-tetraazacyclododecane and four pendent groups (FIG. 1 and FIG. 2). Pyridine pendent groups stabilize Fe(II) relative to Fe(III) (L2, L3), and amide pendent groups are stabilizing of Fe(II) (L1). For example, the pyridine groups in Fe(L3) lead to a high reduction potential of +930 mV vs. NHE. Amide groups contain exchangeable protons and have been commonly used as a basis for Ln(III) paraCEST agents. In contrast, amino pyridine pendent groups and the benzimidazole groups have exchangeable protons that are one bond further away from the Fe-coordinated nitrogen of the pyridine ring. Exchangeable protons close to the Fe(II) center as well as more remotely located protons appended to a ligand pi-system have been studied in this work in order to capitalize on both the dipolar and contact shift contributions of paramagnetic Fe(II). The strategy of using exchangeable protons that are remote from the metal ion center was explored in order to capitalize on both the dipolar and contact shift contributions of paramagnetic Fe(II). Fe(II) complexes were prepared in acetonitrile or in aqueous solution by simple addition of the free base form of the ligands to Fe(CF3SO3)2.

[4] = Dissociation of the metal ion complex (kinetic inertness); format: physicochemical
[5] = Persistence of high spin Fe(II) oxidation state in aqueous solution (1H NMR, μeff); format: physicochemical; conditions: atmospheric oxygen, several days
Protocol: Effective magnetic moments are characteristic of high spin Fe(II) at 5.1 BM and 5.8 BM for Fe(L1) and Fe(L2), These were measured in 100 mM NaCl in D2O, pH 7.4, and D2O at pH 7.0, respectively. The ^1H NMR spectra of the two complexes show highly shifted proton resonances (FIGS. 4-5). There are nine non-exchangeable proton resonances for Fe(L2) consistent with trigonal prismatic geometry as observed previously for Fe(L3) and three sets of four chemically inequivalent proton resonances in the macrocycle backbone. […] The exchangeable amide and amine protons were identified by comparison of the ^1H NMR spectra of the complexes in H2O and […]. For Fe(L1), the amide protons are highly shifted downfield, appearing at 77 ppm. The amine protons of Fe(L2) are only slightly shifted and are observed at 11 ppm.
Generally, macrocyclic complexes in FIG. 1 are prepared from the macrocycle and Fe(II) salt such as FeCl2, or Fe(CF3SO3)2 in acetonitrile at room temperature with argon bubbled through the solvent. This helps to ensure that a negligible amount of O2 is present in the reaction flask. In the absence of an inert atmosphere, difficulties in maintaining the desired oxidation state may arise through mechanisms such as oxidation of the metal to Fe(III) prior to complexation with the ligand. […]

Compound	E° vs. NHE [2] [mV]	formation constant log K (binding of macrocycle to metal ion) [3]	resistance to dissociation >12 h, neutral pH [4]	Ascorbate consumption [1]	other results
NC(=O)CN1CCN(CC(N)=O)CCN(CC(N)=O)CC1.[Fe+2] [Fe(L1)]	860 ± 9	13.5	Moderate	7.2 ± 0.96 ×10^−5 (s^−1)	Log K1 ([3]; K1 = [LH+]/([L][H+]), 1.05 mM L, 1.0 mM Fe(OTf)2, 0.10 M NaCl, 25° C.): 10.19 ± 0.11; Log K2 ([3]; K2 = [LH2 2+]/([LH+][H+]), 0.10 M NaCl, 25° C.): <2; Log K3 ([3]; K3 = [LH3 3+]/([LH2 2+][H+]), 0.10 M NaCl, 25° C.): <2; Log K Fe-L ([3]; KFeL = [FeL2+]/([Fe2+][L]), 0.10 M NaCl, 25° C.): 13.47 ± 0.25; Log K FeL-OH ([3]; KFeL-OH = [FeL-OH+]/([FeL2+][OH−]), 0.10 M NaCl, 25° C.): 9.43 ± 0.18; Log K Fe-LH ([3]; KFeLH = [FeLH3+]/([FeL2+][H+]), 0.10 M NaCl, 25° C.): 5.54 ± 0.14; % dissociation over 12 hours ([4]; 12 hours): <9%; resistance to oxidation to Fe(III) [5]: resistant to oxidation to Fe(III)
[Fe+2].c1ccc2[nH]c(CN3CCN(Cc4nc5ccccc5[nH]4)CCN(Cc4nc5ccccc5[nH]4)CC3)nc2c1 [Fe(L5)]			moderate		
CC(O)CN1CCN(CC(C)O)CCN(CC(C)O)CCN(CC(C)O)CC1.[Fe+2] (centres unmarked) [Fe(L6)]		9.3	Moderate		
Nc1cccc(CN2CCN(Cc3cccc(N)n3)CCN(Cc3cccc(N)n3)CC2)n1.[Fe+2] [Fe(L8)]			good		

The next lines start with results.

E° vs. NHE [2] [mV]	formation constant log K (binding of macrocycle to metal ion) [3]	resistance to dissociation >12 h, neutral pH [4]	Compound	Ascorbate consumption [1]	other results
390			O=C([O-])CN(CCN(CC(=O)[O-])CC(=O)[O-])CC(=O)[O-].[Fe+3] [Fe(EDTA), reference compound]	77 ± 13 ×10^−5 (s^−1)	
		good	Cc1nc(CN2CCN(Cc3ccc(N)c(C)n3)CCN(Cc3ccc(N)c(C)n3)CC2)ccc1N.[Fe+2] [Fe(L2)]		resistance to oxidation to Fe(III) [5]: resistant to oxidation to Fe(III)
800 ± 5	7.5	excellent	NC(=O)CN1CCN(CC(N)=O)CCN(CC(N)=O)CCN(CC(N)=O)CC1.[Fe+2] [Fe(L4)]	4.0 ± 1.0 ×10^−5 (s^−1)	% dissociation over 12 hours ([4]; 12 hours): 0%; dissociation after incubation ([4]; 12 hours, 37° C., pH 4 or neutral pH with five equivalents of CuCl2 or ZnCl2): no dissociation
		moderate	CC(O)CN1CCNCCN(CC(C)O)CCNCC1.[Fe+2] (centres unmarked) [Fe(L7)]		
		good	NC(=O)CN1CCN(CC(N)=O)CCN(CC(N)=O)CC1.[Ni+2] [Ni(L1)]		inertness towards dissociation in solution ([4]; neutral and acidic pH, at least 24 hours): inert towards dissociation
